{"source": "patent US10525058B2", "about": "“Urea derivative or pharmacologically acceptable salt thereof” (KYORIN PHARMACEUTICAL CO., LTD., priority 2015, dated 2020)", "key": {"human FPRL1": {"target": "T1, human FPRL1 (Homo sapiens, UniProt P25090)", "T1 construct": "expressed in transfected cells; host or cells: HEK293 (JCRB9068, NIBIO), transient co-transfection with pCMV-script vectors", "T1 sequence (P25090 1-351)": "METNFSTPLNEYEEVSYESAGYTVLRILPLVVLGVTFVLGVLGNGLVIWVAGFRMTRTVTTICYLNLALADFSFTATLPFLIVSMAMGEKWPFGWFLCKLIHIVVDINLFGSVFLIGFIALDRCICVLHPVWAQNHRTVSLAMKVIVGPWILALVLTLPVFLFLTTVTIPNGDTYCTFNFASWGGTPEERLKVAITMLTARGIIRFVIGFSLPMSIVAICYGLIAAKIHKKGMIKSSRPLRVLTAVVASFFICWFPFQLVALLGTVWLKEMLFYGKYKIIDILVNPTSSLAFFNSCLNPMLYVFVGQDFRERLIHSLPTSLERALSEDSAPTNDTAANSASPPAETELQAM", "experiment": "Measurement test of agonist activity on human FPRL1 (calcium mobilization in HEK293 cells transfected with human FPRL1 and Gα15)", "assay_type": "cell-based", "conditions": "Fluo-4 NW, molar concentration giving 50% maximum activation, read-out: Efficacy EC50", "excerpt": "Measurement test of agonist activity on human FPRL1\n(1-1) Construction of Human FPRL1 Expression Vector\nHuman FPRL (SEQ ID NO: 3) was amplified in a PCR reaction from cDNA derived from a monocytic leukemia cell line THP-1 (TIB-202, ATCC) as a template using a forward primer shown in SEQ ID NO: 1, a reverse primer shown in SEQ ID NO: 2, and KOD-plus-ver. 2 (KOD-211, TOYOBO CO., LTD.). […] 2 (LGK-201, TOYOBO CO., LTD.). The ligation product was transformed into DH5α (DNA-901, TOYOBO CO., LTD.), cultured on a 100 μg/mL kanamycin-containing LB medium, and purified with HiSpeed Plasmid Maxi Kit (12662, QIAGEN).\n(1-2) Construction of Human Gα15 Expression Vector\n2. The amplified PCR product and pCMV-script vector were digested with Hind III and XhoI, and the resultant digest was ligated with Ligation high ver. 2. The ligation product was transformed into DH5α, cultured on a 100 μg/mL kanamycin-containing LB medium, and purified with HiSpeed Plasmid Maxi Kit.\n(2-1) Method for Culturing and Subculturing HEK293\nHEK293 (JCRB9068, NIBIO) was cultured in an incubator at 5% CO2 and 37° C. using DMEM (11885-092, GIBCO) containing 10% FBS and 1cPenicillin-Streptomycin (15140-122, GIBCO).\n(2-2) Introduction of Human FPRL1 and Gal5 Expression Vectors\nThe cells were inoculated in a Collagen Type 1 coated 6-well plate (4810-010, IWAKI) to 5×10^5 cells/2.5 mL/well and cultured overnight. On the next day, human FPRL1 and Gα15 expression vectors were introduced using Lipofectamine 2000 transfection reagent (11668-019, Life technologies). First, the human FPRL1 and Gal5 expression vectors were diluted with Opti-MEM I Reduced Serum Medium (31985-070, GIBCO) to 2 μg/250 μL/well and Lipofectamine 2000 transfection reagent was diluted with Opti-MEM I Reduced Serum Medium to be 4 μL/250 μL/well. The vectors and reagent were softly diffused, and incubated at room temperature for 5 minutes. The vector solution was mixed with Lipofectamine 2000 transfection reagent in equal amounts. In order to form a complex of the vectors and Lipofectamine 2000 transfection reagent, the mixture was incubated at room temperature for 20 minutes, and added at 500 μL/well to the medium of inoculated cells. The treated cells were cultured for 24 hours, inoculated in Poly-D-Lysine coated 96-well plate (356640, BD Biosciences) at a cell density of 7×10^4 cells/100 μL/well, and cultured for another 24 hours. The resultant cells were used in a measurement test of calcium mobilization in the cells.\n(3) Evaluation of Agonist Activity on Human FPRL1 (Test of Calcium Mobilization in Cell)\nAn appropriate amount of each test compound was first weighed, and dissolved to 10^−2 M by addition of dimethyl sulfoxide (DMSO). […] The plate dispensed with compound solutions was set in Flexstation (Molecular Devices, LLC.) until measurement.\nSubsequently, 10 mL of assay buffer and 100 μL of probenecid solution (dissolved by addition of 1 mL of assay buffer to a 250 mM stock) were sufficiently mixed and dissolved in Fluo-4 NW dye mix. The medium of cells inoculated on the previous day was removed, the dissolved Fluo-4 NW dye mix was added in an amount of 90 μL/well, and a reaction was caused in the dark at 37° C. for 45 minutes. The cells after the reaction and chips for addition of the compound were set in Flexstation, and variation in fluorescence intensity over time after addition of the compound was measured [amount of added compound=10 μL (final concentration: 10^−5 M to 10^−12 M), excitation wavelength: 485 nm, measured wavelength: 525 nm, 1.5 sec×54 read]. A value was calculated by subtracting a base value during addition of DMSO from the maximum value of relative fluorescence unit, and analyzed. All the measurement data were analyzed with Prism 4 that was a data analysis tool."}, "[1]": {"tested_on": "neutrophilic infiltration in mouse lung", "experiment": "Effect on lipopolysaccharide-induced neutrophilic infiltration in mouse lung (BAL fluid neutrophil count)", "assay_type": "in vivo", "conditions": "oral, BALB/c male mouse, 30 min before LPS aerosol, BAL neutrophil count after 5 hours relative to control", "protocol": "Effect of lipopolysaccharide induction on neutrophilic infiltration in mouse lung A compound to be tested was orally administrated to a mouse (BALB/c, male), and after 30 minutes, the mouse was placed in a plastic container. Lipopolysaccharide (0.3 mg/mL) dissolved in physiological saline was aerosolized with an ultrasonic wave nebulizer (NE-U17, OMRON Corporation), and exposed to the mouse for 10 minutes. After 5 hours, the anesthetized mouse was sacrificed by exsanguination. […] This operation was repeated 3 times, to obtain a BAL fluid. The BAL fluid was centrifuged at 4° C. and ×200 g for 5 minutes, and the pellet was suspended in a physiological saline containing 0.1% BSA. The number of white blood cells was counted using Turks solution with a microscope, and the total white blood cell count was calculated. The white blood cells were fixed on a glass slide using Cytospin 3 (Thermo BioAnalysis Japan K. K.). The cells were stained with Diff-Quik (SYSMEX INTERNATIONAL REAGENTS CO., LTD.), and the number thereof was counted with a microscope, and the neutrophil ratio was calculated. The neutrophil ratio was multiplied by the total white blood cell count to calculate the total neutrophil count. An effect of the compound to be tested represents a percentage (%) of suppression ratio relative to the neutrophil count in a control."}}, "data": [{"compound": "COc1cc(F)c([C@@H]2CN3CCON=C3[C@H]2NC(=O)Nc2ccc(F)cc2)c(F)c1", "note": "(relative stereo) [Example 7-7, 1-[(7R*,8S*)-7-(2,6-difluoro-4-methoxyphenyl)-4,6,7,8-tetrahydro-3H-pyrrolo[2,1-c][1,2,4]-oxadiazin-8-yl]-3-(4-fluorophenyl)urea]", "values": [{"measurement": "EC50", "setting": "human FPRL1", "value": 0.02, "unit": "nM"}, {"measurement": "Suppression Ratio", "setting": "[1]; dose 1 mg/kg", "value": 97, "unit": "%"}]}, {"compound": "COc1ccc([C@@H]2COCC2NC(=O)Nc2ccc(Cl)cc2)cc1", "note": "(single isomer, unassigned; (+)) [Example 2-1 Isomer A, (+)-cis-1-(4-Chlorophenyl)-3-[4-(4-methoxyphenyl)tetrahydrofuran-3-yl]urea]", "values": [{"measurement": "EC50", "setting": "human FPRL1", "value": 0.54, "unit": "nM"}, {"measurement": "Suppression Ratio", "setting": "[1]; dose 3 mg/kg", "value": 82, "unit": "%"}]}, {"compound": "COc1ccc([C@@H]2COCC2NC(=O)Nc2ccc(F)cc2)cc1", "note": "(single isomer, unassigned; (+)) [Example 3-1 Isomer A, (+)-cis-1-(4-Fluorophenyl)-3-[4-(4-methoxyphenyl)tetrahydrofuran-3-yl]urea]", "values": [{"measurement": "EC50", "setting": "human FPRL1", "value": 0.62, "unit": "nM"}, {"measurement": "Suppression Ratio", "setting": "[1]; dose 3 mg/kg", "value": 80, "unit": "%"}]}]}
